Results: ChEMBL document CHEMBL3396992, “Synthesis and biological evaluation of pyrazolylthiazole carboxylic acids as potent anti-inflammatory-antimicrobial agents” (2015)
≈ marks a conversion by molar mass, not a printed value. Calls of active or inactive are those of the source. The calls are words filed in the database; no cut-off is given here.

Tests used:
Rattus norvegicus [1] = assay: Antiinflammatory activity against carrageenan-induced paw edema male Wistar albino rat assessed as edema volume at 50 mg/kg, ip administered 30 mins prior to carrageenan-challenge measured after 4 hrs (reference value: 1.88 +/- 0.20 mL); format: functional; conditions: route intraperitoneal
Staphylococcus aureus [2] = assay: Antimicrobial activity against Staphylococcus aureus MTCC 96 assessed as growth inhibition at 4 mg/ml after 24 hrs by agar well diffusion method; format: functional; conditions: for zone of inhibition at 4000 µg/mL: MTCC 96, 24 h, read-out: DIZ
Candida albicans [3] = assay: Antimicrobial activity against Candida albicans MTCC 3017 assessed as growth inhibition after 24 hrs by agar well diffusion method; format: functional; conditions: MTCC 3017, 24 h
Saccharomyces cerevisiae [4] = assay: Antimicrobial activity against Saccharomyces cerevisiae MTCC 170 assessed as growth inhibition at 4 mg/ml after 24 hrs by agar well diffusion method; format: functional; conditions: for zone of inhibition at 4000 µg/mL: MTCC 170, 24 h, read-out: DIZ
Bacillus subtilis [5] = assay: Antimicrobial activity against Bacillus subtilis MTCC 121 assessed as growth inhibition at 4 mg/ml after 24 hrs by agar well diffusion method; format: functional; conditions: for zone of inhibition at 4000 µg/mL: MTCC 121, 24 h, read-out: DIZ
Escherichia coli = assay: Antimicrobial activity against Escherichia coli MTCC 1652 assessed as growth inhibition at 4 mg/ml after 24 hrs by agar well diffusion method; format: functional, organism-based
Rattus norvegicus [6] = assay: Antiinflammatory activity against carrageenan-induced paw edema male Wistar albino rat assessed as edema volume at 50 mg/kg, ip administered 30 mins prior to carrageenan-challenge measured after 3 hrs (reference value: 1.73 +/- 0.09 mL); format: functional; conditions: route intraperitoneal
Staphylococcus aureus [7] = assay: Antimicrobial activity against Staphylococcus aureus MTCC 96 assessed as growth inhibition after 24 hrs by agar well diffusion method; format: functional
Rattus norvegicus [8] = assay: Antiinflammatory activity against carrageenan-induced paw edema male Wistar albino rat assessed as edema volume at 50 mg/kg, po administered 30 mins prior to carrageenan-challenge measured after 1 hr (reference value: 1.11 +/- 0.12 mL); format: functional
Rattus norvegicus [9] = assay: Antiinflammatory activity against carrageenan-induced paw edema male Wistar albino rat at 50 mg/kg, ip administered 30 mins prior to carrageenan-challenge measured after 4 hrs relative to control; format: functional; conditions: route intraperitoneal
Pseudomonas aeruginosa = conditions: MTCC 741, 4 mg/ml
Description: Antimicrobial activity against Pseudomonas aeruginosa MTCC 741 assessed as growth inhibition at 4 mg/ml after 24 hrs by agar well diffusion method

Candida albicans [10] = assay: Antimicrobial activity against Candida albicans MTCC 3017 assessed as growth inhibition at 4 mg/ml after 24 hrs by agar well diffusion method; format: functional; conditions: MTCC 3017, 24 h, read-out: DIZ
Rattus norvegicus [11] = assay: Antiinflammatory activity against carrageenan-induced paw edema male Wistar albino rat at 50 mg/kg, ip administered 30 mins prior to carrageenan-challenge measured after 1 hr relative to control; format: functional; conditions: route intraperitoneal
Rattus norvegicus [12] = assay: Antiinflammatory activity against carrageenan-induced paw edema male Wistar albino rat at 50 mg/kg, ip administered 30 mins prior to carrageenan-challenge measured after 2 hrs relative to control; format: functional; conditions: route intraperitoneal
Bacillus subtilis [13] = assay: Antimicrobial activity against Bacillus subtilis MTCC 121 assessed as growth inhibition after 24 hrs by agar well diffusion method; format: functional
Rattus norvegicus [14] = assay: Antiinflammatory activity against carrageenan-induced paw edema male Wistar albino rat at 50 mg/kg, ip administered 30 mins prior to carrageenan-challenge measured after 3 hrs relative to control; format: functional; conditions: route intraperitoneal
Saccharomyces cerevisiae [15] = assay: Antimicrobial activity against Saccharomyces cerevisiae MTCC 170 assessed as growth inhibition after 24 hrs by agar well diffusion method; format: functional
Rattus norvegicus [16] = assay: Antiinflammatory activity against carrageenan-induced paw edema male Wistar albino rat assessed as edema volume at 50 mg/kg, ip administered 30 mins prior to carrageenan-challenge measured after 2 hrs (reference value: 1.21 +/- 0.16 mL); format: functional; conditions: route intraperitoneal

| Structure (SMILES) | Activity (Rattus norvegicus [1]) [mL] | zone of inhibition at 4000 µg/mL (Staphylococcus aureus [2]) [mm] | MIC (Candida albicans [3]) [µg/mL] | zone of inhibition at 4000 µg/mL (Saccharomyces cerevisiae [4]) [mm] | zone of inhibition at 4000 µg/mL (Bacillus subtilis [5]) [mm] | diameter of the inhibition zone (DIZ) (Escherichia coli) | Activity (Rattus norvegicus [6]) [mL] | MIC (Staphylococcus aureus [7]; MTCC 96, 24 h) [µg/mL] | Activity (Rattus norvegicus [8]) [mL] | Activity (Rattus norvegicus [9]) [%] | DIZ (Pseudomonas aeruginosa) | zone of inhibition at 4000 µg/mL (Candida albicans [10]) [mm] | Activity (Rattus norvegicus [11]) [%] | Activity (Rattus norvegicus [12]) [%] | MIC (Bacillus subtilis [13]; MTCC 121, 24 h) [µg/mL] | Activity (Rattus norvegicus [14]) [%] | MIC (Saccharomyces cerevisiae [15]; MTCC 170, 24 h) [µg/mL] | Activity (Rattus norvegicus [16]) [mL] | diameter of the inhibition zone (DIZ) (Staphylococcus aureus [2]) | diameter of the inhibition zone (DIZ) (Saccharomyces cerevisiae [4]) | other results |
| --- | --- | --- | --- | --- | --- | --- | --- | --- | --- | --- | --- | --- | --- | --- | --- | --- | --- | --- | --- | --- | --- |
| COc1ccc(-c2nc(-c3cn(-c4ccccc4)nc3-c3ccccc3)sc2C(=O)O)cc1 | 0.22 | 20.3 | 50 (≈ 110 µM) | 21.3 | 17.6 | inactive | 0.24 | 25 (≈ 55.1 µM) | 0.19 | 88.29 | inactive | 15.3 | 82.88 | 79.33 | 50 (≈ 110 µM) | 86.12 | 25 (≈ 55.1 µM) | 0.25 | – | – | – |
| CCOC(=O)c1sc(-c2cn(-c3ccccc3)nc2-c2ccc(Cl)cc2)nc1-c1ccccc1 | 0.28 | – | 50 (≈ 103 µM) | – | 12 | inactive | 0.32 | – | 0.12 | 85.1 | inactive | 16 | 89.89 | 81.81 | 50 (≈ 103 µM) | 81.5 | – | 0.22 | inactive | inactive | MIC (Staphylococcus aureus [7]): inactive; MIC (Saccharomyces cerevisiae [15]): inactive |
| CCOC(=O)c1sc(-c2cn(-c3ccccc3)nc2-c2ccc(F)cc2)nc1-c1ccccc1 | 0.45 | – | 50 (≈ 106 µM) | – | – | inactive | 0.33 | – | 0.26 | 76.06 | inactive | 16.6 | 76.57 | 73.55 | – | 80.92 | – | 0.32 | inactive | inactive | diameter of the inhibition zone (DIZ) (Bacillus subtilis [5]): inactive; MIC (Staphylococcus aureus [7]): inactive; MIC (Bacillus subtilis [13]): inactive; MIC (Saccharomyces cerevisiae [15]): inactive |
| CCOC(=O)c1sc(-c2cn(-c3ccccc3)nc2-c2ccc(F)cc2)nc1-c1ccc(F)cc1 | 0.23 | – | 12.5 (≈ 25.6 µM) | – | 15.6 | inactive | 0.32 | – | 0.16 | 87.76 | inactive | 22.6 | 85.58 | 79.33 | 50 (≈ 103 µM) | 81.5 | – | 0.25 | inactive | inactive | MIC (Staphylococcus aureus [7]): inactive; MIC (Saccharomyces cerevisiae [15]): inactive |
| COc1ccc(-c2nn(-c3ccccc3)cc2-c2nc(-c3ccc(OC)cc3)c(C(=O)O)s2)cc1 | 0.19 | 16.3 | 50 (≈ 103 µM) | 13.3 | 16.3 | inactive | 0.2 | 50 (≈ 103 µM) | 0.13 | 89.89 | inactive | 13 | 82.88 | 86.77 | 50 (≈ 103 µM) | 88.43 | 50 (≈ 103 µM) | 0.24 | – | – | – |
| O=C(O)c1sc(-c2cn(-c3ccccc3)nc2-c2ccccc2)nc1-c1ccc(Cl)cc1 | 0.22 | 21 | 50 (≈ 109 µM) | 20.6 | 17.6 | inactive | 0.2 | 25 (≈ 54.6 µM) | 0.14 | 88.29 | inactive | 17.6 | 87.38 | 82.64 | 50 (≈ 109 µM) | 88.43 | 25 (≈ 54.6 µM) | 0.21 | – | – | – |
| COc1ccc(-c2nc(-c3cn(-c4ccccc4)nc3-c3ccc(Cl)cc3)sc2C(=O)O)cc1 | 0.21 | – | 12.5 (≈ 25.6 µM) | 12 | 18.3 | inactive | 0.16 | – | 0.15 | 88.82 | inactive | 25.3 | 86.48 | 89.29 | 25 (≈ 51.2 µM) | 90.75 | 50 (≈ 102 µM) | 0.19 | inactive | – | MIC (Staphylococcus aureus [7]): inactive |
| CCOC(=O)c1sc(-c2cn(-c3ccccc3)nc2-c2ccc(OC)cc2)nc1-c1ccc(OC)cc1 | 0.17 | 15 | 50 (≈ 97.7 µM) | – | – | – | 0.27 | 50 (≈ 97.7 µM) | 0.15 | 90.95 | – | 16.6 | 86.48 | 84.29 | – | 84.39 | – | 0.19 | – | inactive | diameter of the inhibition zone (DIZ) (Bacillus subtilis [5]): inactive; MIC (Bacillus subtilis [13]): inactive; MIC (Saccharomyces cerevisiae [15]): inactive |
| C[C@@H]1[C@H](O)[C@@H](C)/C=C/C=C/C=C/C=C/C=C/C=C/C=C/[C@H](O[C@@H]2O[C@H](C)[C@@H](O)[C@H](N)[C@@H]2O)C[C@@H]2O[C@](O)(C[C@@H](O)C[C@@H](O)[C@H](O)CC[C@@H](O)C[C@@H](O)CC(=O)O[C@H]1C)C[C@H](O)[C@H]2C(=O)O [AMPHOTERICIN B] | – | – | 6.25 (≈ 6.76 µM) | 19.3 | – | – | – | – | – | – | – | 16.6 | – | – | – | – | 6.25 (≈ 6.76 µM) | – | – | – | – |
